Assay results as given in patent publication US20250171438A1 (Agios Pharmaceuticals, Inc., priority 2022, published 2025).

Biological target: T1, human PAH with the R408W mutation (Homo sapiens, UniProt P00439, R408W)
T1 construct: expressed in transfected cells
T1 sequence (P00439 1-452 R408W): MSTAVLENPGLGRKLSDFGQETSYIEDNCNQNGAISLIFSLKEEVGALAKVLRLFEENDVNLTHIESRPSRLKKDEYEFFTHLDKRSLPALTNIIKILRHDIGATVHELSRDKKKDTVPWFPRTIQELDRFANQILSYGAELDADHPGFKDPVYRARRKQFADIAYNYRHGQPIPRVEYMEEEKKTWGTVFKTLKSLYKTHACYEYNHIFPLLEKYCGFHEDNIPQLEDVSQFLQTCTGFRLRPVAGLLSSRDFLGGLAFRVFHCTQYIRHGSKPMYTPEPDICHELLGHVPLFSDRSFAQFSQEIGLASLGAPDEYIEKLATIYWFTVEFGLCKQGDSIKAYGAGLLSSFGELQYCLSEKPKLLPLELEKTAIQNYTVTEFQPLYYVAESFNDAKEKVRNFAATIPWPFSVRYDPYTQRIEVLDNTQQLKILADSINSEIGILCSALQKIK
Test: Cell Based Phenylalanine Flux Assay
Details: A375 cells expressing human R408W PAH; 24 hrs compound incubation; 13C-Tyrosine by LC-MS; average where tested multiple times; read-out: AC50
Experimental: Compounds were resuspended in DMSO, and 2-fold serial dilutions were performed to generate a 10-point dose curve. Compounds were added to plated cells in a total volume of 100 pal, and a final DMSO concentration of 0.5%. Each compound was tested in duplicate. Following compound addition, cells were placed in a 5% CO2, 37° C. tissue culture incubator for 24 hrs. After the incubation period, 20 μM sepiapterin and 800 μM 13C9,15N-Phenylalanine were added. After 4 hours, cell media was removed. An aliquot of 10 μl of cell media was combined with 200 μl of extraction buffer (80% acetonitrile/20% H2O) for each well. Determination of ^13C-Tyrosine concentration was assessed by liquid chromatography mass spectrometry.
Where a compound was tested multiple times, the average value of the tests is reported.

Compound | AC50 [nM]
O=C(c1nnc(-c2ccc(F)c(F)c2)o1)N1CCc2[nH]cnc2[C@H]1c1nc2c(F)cccc2s1 [Example 1878, (S)-(5-(3,4-difluorophenyl)-1,3,4-oxadiazol-2-yl)(4-(4-fluorobenzo[d]thiazol-2-yl)-6,7-dihydro-1H-imidazo[4,5-c]pyridin-5(4H)-yl)methanone] | < 500
Cc1ccc(-c2nnc(C(=O)N3CCc4[nH]cnc4[C@@H]3c3nc4ccccc4s3)o2)nc1 [Example 1879, (R)-(4-(benzo[d]thiazol-2-yl)-6,7-dihydro-1H-imidazo[4,5-c]pyridin-5(4H)-yl)(5-(5-methylpyridin-2-yl)-1,3,4-oxadiazol-2-yl)methanone] | 1000 to 5000
Cc1ccc(-c2nnc(C(=O)N3CCc4[nH]cnc4[C@H]3c3nc4ccccc4s3)o2)nc1 [Example 1880] | < 500
O=C(c1nnc(-c2cnn(CC(F)F)c2)o1)N1CCc2[nH]cnc2[C@@H]1c1nc2c(F)cccc2s1 [Example 1881, (R)-(5-(1-(2,2-difluoroethyl)-1H-pyrazol-4-yl)-1,3,4-oxadiazol-2-yl)(4-(4-fluorobenzo[d]thiazol-2-yl)-6,7-dihydro-1H-imidazo[4,5-c]pyridin-5(4H)-yl)methanone] | 1000 to 5000
O=C(c1nnc(-c2cnn(CC(F)F)c2)o1)N1CCc2[nH]cnc2[C@H]1c1nc2c(F)cccc2s1 [Example 1882, (S)-(5-(1-(2,2-difluoroethyl)-1H-pyrazol-4-yl)-1,3,4-oxadiazol-2-yl)(4-(4-fluorobenzo[d]thiazol-2-yl)-6,7-dihydro-1H-imidazo[4,5-c]pyridin-5(4H)-yl)methanone] | < 500
Cn1cc(-c2nnc(C(=O)N3CCc4[nH]cnc4[C@H]3c3nc4ccccc4s3)o2)c(C(F)(F)F)n1 [Example 1883] | < 500
Cn1cc(-c2nnc(C(=O)N3CCc4[nH]cnc4[C@@H]3c3nc4ccccc4s3)o2)c(C(F)(F)F)n1 [Example 1884, (R)-(4-(benzo[d]thiazol-2-yl)-6,7-dihydro-1H-imidazo[4,5-c]pyridin-5(4H)-yl)(5-(1-methyl-3-(trifluoromethyl)-1H-pyrazol-4-yl)-1,3,4-oxadiazol-2-yl)methanone] | 1000 to 5000
O=C(c1nnc(-c2cc[nH]n2)o1)N1CCc2[nH]cnc2[C@@H]1c1nc2c(F)cccc2s1 [Example 1885, (R)-(5-(1H-pyrazol-3-yl)-1,3,4-oxadiazol-2-yl)(4-(4-fluorobenzo[d]thiazol-2-yl)-6,7-dihydro-1H-imidazo[4,5-c]pyridin-5(4H)-yl)methanone] | 1000 to 5000
O=C(c1nnc(-c2cc[nH]n2)o1)N1CCc2[nH]cnc2[C@H]1c1nc2c(F)cccc2s1 [Example 1886] | 500 to 1000
O=C(c1nnc(-c2ccn(C(F)F)n2)o1)N1CCc2[nH]cnc2[C@@H]1c1nc2c(F)cccc2s1 [Example 1887, (R)-(5-(1-(difluoromethyl)-1H-pyrazol-3-yl)-1,3,4-oxadiazol-2-yl)(4-(4-fluorobenzo[d]thiazol-2-yl)-6,7-dihydro-1H-imidazo[4,5-c]pyridin-5(4H)-yl)methanone] | 1000 to 5000
O=C(c1nnc(-c2ccn(C(F)F)n2)o1)N1CCc2[nH]cnc2[C@H]1c1nc2c(F)cccc2s1 [Example 1888, (S)-(5-(1-(difluoromethyl)-1H-pyrazol-3-yl)-1,3,4-oxadiazol-2-yl)(4-(4-fluorobenzo[d]thiazol-2-yl)-6,7-dihydro-1H-imidazo[4,5-c]pyridin-5(4H)-yl)methanone] | < 500
O=C(c1nnc(-c2cc(C(F)(F)F)ccn2)o1)N1CCc2[nH]cnc2[C@H]1c1nc2ccccc2s1 [Example 1889, [(4S)-4-(1,3-benzothiazol-2-yl)-1,4,6,7-tetrahydroimidazo[4,5-c]pyridin-5-yl]-[5-[4-(trifluoromethyl)-2-pyridyl]-1,3,4-oxadiazol-2-yl]methanone] | < 500
O=C(c1nnc(-c2cc(C(F)(F)F)ccn2)o1)N1CCc2[nH]cnc2[C@@H]1c1nc2ccccc2s1 [Example 1890, [(4R)-4-(1,3-benzothiazol-2-yl)-1,4,6,7-tetrahydroimidazo[4,5-c]pyridin-5-yl]-[5-[4-(trifluoromethyl)-2-pyridyl]-1,3,4-oxadiazol-2-yl]methanone] | 1000 to 5000
O=C(c1nnc(C2CC(F)(F)C2)o1)N1CCc2[nH]cnc2[C@@H]1c1nc2c(F)cccc2s1 [Example 1891, (R)-(5-(3,3-difluorocyclobutyl)-1,3,4-oxadiazol-2-yl)(4-(4-fluorobenzo[d]thiazol-2-yl)-6,7-dihydro-1H-imidazo[4,5-c]pyridin-5(4H)-yl)methanone] | 1000 to 5000
O=C(c1nnc(C2CC(F)(F)C2)o1)N1CCc2[nH]cnc2[C@H]1c1nc2c(F)cccc2s1 [Example 1892, (S)-(5-(3,3-difluorocyclobutyl)-1,3,4-oxadiazol-2-yl)(4-(4-fluorobenzo[d]thiazol-2-yl)-6,7-dihydro-1H-imidazo[4,5-c]pyridin-5(4H)-yl)methanone] | 500 to 1000
CC(C)(C)OC(=O)N1CC(c2nnc(C(=O)N3CCc4[nH]cnc4[C@H]3c3nc4ccccc4s3)o2)C1 [Example 1893, (S)-tert-butyl 3-(5-(4-(benzo[d]thiazol-2-yl)-4,5,6,7-tetrahydro-1H-imidazo[4,5-c]pyridine-5-carbonyl)-1,3,4-oxadiazol-2-yl)azetidine-1-carboxylate] | 500 to 1000
CC(C)(C)OC(=O)N1CC(c2nnc(C(=O)N3CCc4[nH]cnc4[C@@H]3c3nc4ccccc4s3)o2)C1 [Example 1894, (R)-tert-butyl 3-(5-(4-(benzo[d]thiazol-2-yl)-4,5,6,7-tetrahydro-1H-imidazo[4,5-c]pyridine-5-carbonyl)-1,3,4-oxadiazol-2-yl)azetidine-1-carboxylate] | 1000 to 5000
O=C(c1cnn(-c2ccccn2)c1Cl)N1CCc2[nH]cnc2[C@H]1c1nc2ccccc2s1 [Example 1895] | 500 to 1000
O=C(c1cnn(-c2ccccn2)c1Cl)N1CCc2[nH]cnc2[C@@H]1c1nc2ccccc2s1 [Example 1896, (R)-(4-(benzo[d]thiazol-2-yl)-6,7-dihydro-1H-imidazo[4,5-c]pyridin-5(4H)-yl)(5-chloro-1-(pyridin-2-yl)-1H-pyrazol-4-yl)methanone] | 1000 to 5000

Further lines, results first:

AC50 [nM] | Compound
< 500 | CC(C)(O)c1nc(Br)c(C(=O)N2CCc3[nH]cnc3[C@H]2c2nc3c(F)cccc3s2)o1 [Example 1897, (S)-(4-bromo-2-(2-hydroxypropan-2-yl)oxazol-5-yl)(4-(4-fluorobenzo[d]thiazol-2-yl)-6,7-dihydro-1H-imidazo[4,5-c]pyridin-5(4H)-yl)methanone]
1000 to 5000 | CC(C)(O)c1nc(Br)c(C(=O)N2CCc3[nH]cnc3[C@@H]2c2nc3c(F)cccc3s2)o1 [Example 1898, (R)-(4-bromo-2-(2-hydroxypropan-2-yl)oxazol-5-yl)(4-(4-fluorobenzo[d]thiazol-2-yl)-6,7-dihydro-1H-imidazo[4,5-c]pyridin-5(4H)-yl)methanone]
< 500 | O=C(c1nnc(-c2cc[nH]n2)o1)N1CCc2[nH]cnc2[C@H]1c1nc2ccccc2s1 [Example 1899]
1000 to 5000 | O=C(c1nnc(-c2cc[nH]n2)o1)N1CCc2[nH]cnc2[C@@H]1c1nc2ccccc2s1 [Example 1900, (R)-(5-(1H-pyrazol-3-yl)-1,3,4-oxadiazol-2-yl)(4-(benzo[d]thiazol-2-yl)-6,7-dihydro-1H-imidazo[4,5-c]pyridin-5(4H)-yl)methanone]
500 to 1000 | O=C(c1nnc(-c2ncccc2F)o1)N1CCc2[nH]cnc2[C@@H]1c1nc2c(F)cccc2s1 [Example 1901, (R)-(4-(4-fluorobenzo[d]thiazol-2-yl)-6,7-dihydro-1H-imidazo[4,5-c]pyridin-5(4H)-yl)(5-(3-fluoropyridin-2-yl)-1,3,4-oxadiazol-2-yl)methanone]
< 500 | O=C(c1nnc(-c2ncccc2F)o1)N1CCc2[nH]cnc2[C@H]1c1nc2c(F)cccc2s1 [Example 1902, (S)-(4-(4-fluorobenzo[d]thiazol-2-yl)-6,7-dihydro-1H-imidazo[4,5-c]pyridin-5(4H)-yl)(5-(3-fluoropyridin-2-yl)-1,3,4-oxadiazol-2-yl)methanone]
500 to 1000 | Cc1ccc(-c2nnc(C(=O)N3CCc4[nH]cnc4[C@@H]3c3nc4c(F)cccc4s3)o2)nc1 [Example 1903, (R)-(4-(4-fluorobenzo[d]thiazol-2-yl)-6,7-dihydro-1H-imidazo[4,5-c]pyridin-5(4H)-yl)(5-(5-methylpyridin-2-yl)-1,3,4-oxadiazol-2-yl)methanone]
< 500 | Cc1ccc(-c2nnc(C(=O)N3CCc4[nH]cnc4[C@H]3c3nc4c(F)cccc4s3)o2)nc1 [Example 1904, (S)-(4-(4-fluorobenzo[d]thiazol-2-yl)-6,7-dihydro-1H-imidazo[4,5-c]pyridin-5(4H)-yl)(5-(5-methylpyridin-2-yl)-1,3,4-oxadiazol-2-yl)methanone]
500 to 1000 | O=C(c1nnc(-c2cc(C(F)(F)F)ccn2)o1)N1CCc2[nH]cnc2[C@@H]1c1nc2c(F)cccc2s1 [Example 1905, (R)-(4-(4-fluorobenzo[d]thiazol-2-yl)-6,7-dihydro-1H-imidazo[4,5-c]pyridin-5(4H)-yl)(5-(4-(trifluoromethyl)pyridin-2-yl)-1,3,4-oxadiazol-2-yl)methanone]
< 500 | O=C(c1nnc(-c2cc(C(F)(F)F)ccn2)o1)N1CCc2[nH]cnc2[C@H]1c1nc2c(F)cccc2s1 [Example 1906, (S)-(4-(4-fluorobenzo[d]thiazol-2-yl)-6,7-dihydro-1H-imidazo[4,5-c]pyridin-5(4H)-yl)(5-(4-(trifluoromethyl)pyridin-2-yl)-1,3,4-oxadiazol-2-yl)methanone]
